Test results published in ChEMBL document CHEMBL1201862, “PubChem BioAssay data set” (2004).
Active and inactive are the calls of the source.

How the values were obtained:
[1] = Shn3 3'UTR reporter inhibitors, dose response, cell-based, Clone20 osteoblasts, firefly luciferase, cherry-picked (AID 624132); type: functional;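 further: firefly luciferase luminescence from reporter carrying the Shn3 3'UTR in osteoblasts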
[2] = HepG2 cell cytotoxicity, dose response, cytotoxicity control for Shn3 inhibitor project, CellTiter-Glo, cherry-picked (AID 624134); type: functional, cell-based
[3] = control 3'UTR Renilla luciferase suppression, dose response, counter-screen for Shn3 inhibitor project, cell-based, Clone20-Shn3RL, cherry-picked (AID 624133); type: functional
Galanin receptor type 3 = biological target: T1, Galanin receptor type 3 (Homo sapiens, UniProt O60755); test: Fluorescence-based cell-based primary high throughput dose response assay to identify antagonists of the Galanin Receptor 3 (GalR3).; type: functional
T1 sequence (O60755 whole entry): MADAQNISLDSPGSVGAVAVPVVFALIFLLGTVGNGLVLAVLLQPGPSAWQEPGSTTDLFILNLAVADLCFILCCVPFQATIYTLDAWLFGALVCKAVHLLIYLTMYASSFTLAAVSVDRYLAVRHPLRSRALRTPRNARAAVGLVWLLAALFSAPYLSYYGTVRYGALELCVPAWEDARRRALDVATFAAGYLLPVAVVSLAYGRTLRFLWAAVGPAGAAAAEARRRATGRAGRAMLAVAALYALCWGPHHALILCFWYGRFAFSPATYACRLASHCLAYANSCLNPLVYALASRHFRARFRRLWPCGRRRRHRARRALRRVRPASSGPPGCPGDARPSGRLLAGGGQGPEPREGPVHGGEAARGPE

cells = type: functional, cell-based; conditions: HEK-CNG
[4] = biological target: COUP transcription factor 2 (Homo sapiens, UniProt P24468); test: Luminescence-based cell-based high throughput dose response assay to identify inhibitors of COUP-TFII (NR2F2).; type: functional;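 further: HEK293 cells transiently cotransfected with COUP-TFII expression vector and reporter; luciferase reporter luminescence driven by COUP-TFII from the pX2-168 reporter plasmid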
Chain of COUP transcription factor 2 (P24468 whole entry): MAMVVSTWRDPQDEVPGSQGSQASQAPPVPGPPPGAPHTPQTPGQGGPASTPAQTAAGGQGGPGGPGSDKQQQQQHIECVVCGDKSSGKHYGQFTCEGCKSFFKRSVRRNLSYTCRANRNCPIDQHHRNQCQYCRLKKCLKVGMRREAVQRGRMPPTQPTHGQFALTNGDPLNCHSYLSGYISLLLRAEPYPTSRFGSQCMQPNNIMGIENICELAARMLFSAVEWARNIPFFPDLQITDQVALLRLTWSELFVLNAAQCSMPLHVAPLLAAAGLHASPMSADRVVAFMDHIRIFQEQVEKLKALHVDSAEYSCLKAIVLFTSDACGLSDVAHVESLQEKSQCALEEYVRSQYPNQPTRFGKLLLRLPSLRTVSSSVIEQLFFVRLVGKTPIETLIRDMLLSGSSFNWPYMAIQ

[5] = biological target: 1-phosphatidylinositol 4,5-bisphosphate phosphodiesterase gamma-1 (Homo sapiens, UniProt P19174); test: Counterscreen for inhibitors of phospholipase C isozymes (PLC-B3): Fluorescence-based biochemical high throughput dose response assay to identify inhibitors of phospholipase C isozymes (PLC-gamma1).
Chain of 1-phosphatidylinositol 4,5-bisphosphate phosphodiesterase gamma-1 (P19174 whole entry): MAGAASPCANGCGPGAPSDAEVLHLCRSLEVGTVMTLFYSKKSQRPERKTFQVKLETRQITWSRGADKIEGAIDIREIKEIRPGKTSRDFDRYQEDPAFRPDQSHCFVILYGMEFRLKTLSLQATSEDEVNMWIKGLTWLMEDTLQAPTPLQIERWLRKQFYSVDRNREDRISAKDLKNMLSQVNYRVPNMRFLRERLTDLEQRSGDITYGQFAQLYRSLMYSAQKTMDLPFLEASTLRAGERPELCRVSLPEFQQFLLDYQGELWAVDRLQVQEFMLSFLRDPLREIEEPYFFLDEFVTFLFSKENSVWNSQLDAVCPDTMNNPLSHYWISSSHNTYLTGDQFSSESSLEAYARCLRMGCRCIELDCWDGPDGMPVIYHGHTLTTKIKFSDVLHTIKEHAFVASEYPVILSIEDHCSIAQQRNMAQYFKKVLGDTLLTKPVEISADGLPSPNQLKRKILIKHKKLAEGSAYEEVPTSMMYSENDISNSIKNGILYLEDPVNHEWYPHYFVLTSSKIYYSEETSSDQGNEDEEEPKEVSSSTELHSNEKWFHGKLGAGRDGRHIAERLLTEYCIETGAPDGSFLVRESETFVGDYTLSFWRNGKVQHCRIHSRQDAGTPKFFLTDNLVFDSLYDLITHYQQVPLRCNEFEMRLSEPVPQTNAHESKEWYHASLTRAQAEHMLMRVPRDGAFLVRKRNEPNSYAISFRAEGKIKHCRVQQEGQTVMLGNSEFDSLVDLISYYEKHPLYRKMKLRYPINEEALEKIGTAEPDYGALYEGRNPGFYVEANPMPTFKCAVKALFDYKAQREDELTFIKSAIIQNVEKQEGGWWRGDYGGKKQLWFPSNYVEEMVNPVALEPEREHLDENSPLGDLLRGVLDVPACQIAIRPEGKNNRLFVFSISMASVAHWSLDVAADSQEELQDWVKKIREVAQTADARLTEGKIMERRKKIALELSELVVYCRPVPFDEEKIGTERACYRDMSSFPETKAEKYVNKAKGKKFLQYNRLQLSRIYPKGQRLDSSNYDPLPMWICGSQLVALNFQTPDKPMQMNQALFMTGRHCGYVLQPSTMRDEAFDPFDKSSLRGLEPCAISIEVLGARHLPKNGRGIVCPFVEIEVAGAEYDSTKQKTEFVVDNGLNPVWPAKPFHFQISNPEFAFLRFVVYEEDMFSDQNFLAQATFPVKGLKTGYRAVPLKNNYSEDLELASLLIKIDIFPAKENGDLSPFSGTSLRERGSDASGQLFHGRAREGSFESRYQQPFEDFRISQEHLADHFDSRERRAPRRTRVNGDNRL

[6] = biological target: 1-phosphatidylinositol 4,5-bisphosphate phosphodiesterase beta-3 (Homo sapiens, UniProt Q01970); test: Fluorescence-based biochemical high throughput dose response assay to identify inhibitors of phospholipase C isozymes (PLC-B3).
Chain of 1-phosphatidylinositol 4,5-bisphosphate phosphodiesterase beta-3 (Q01970 whole entry): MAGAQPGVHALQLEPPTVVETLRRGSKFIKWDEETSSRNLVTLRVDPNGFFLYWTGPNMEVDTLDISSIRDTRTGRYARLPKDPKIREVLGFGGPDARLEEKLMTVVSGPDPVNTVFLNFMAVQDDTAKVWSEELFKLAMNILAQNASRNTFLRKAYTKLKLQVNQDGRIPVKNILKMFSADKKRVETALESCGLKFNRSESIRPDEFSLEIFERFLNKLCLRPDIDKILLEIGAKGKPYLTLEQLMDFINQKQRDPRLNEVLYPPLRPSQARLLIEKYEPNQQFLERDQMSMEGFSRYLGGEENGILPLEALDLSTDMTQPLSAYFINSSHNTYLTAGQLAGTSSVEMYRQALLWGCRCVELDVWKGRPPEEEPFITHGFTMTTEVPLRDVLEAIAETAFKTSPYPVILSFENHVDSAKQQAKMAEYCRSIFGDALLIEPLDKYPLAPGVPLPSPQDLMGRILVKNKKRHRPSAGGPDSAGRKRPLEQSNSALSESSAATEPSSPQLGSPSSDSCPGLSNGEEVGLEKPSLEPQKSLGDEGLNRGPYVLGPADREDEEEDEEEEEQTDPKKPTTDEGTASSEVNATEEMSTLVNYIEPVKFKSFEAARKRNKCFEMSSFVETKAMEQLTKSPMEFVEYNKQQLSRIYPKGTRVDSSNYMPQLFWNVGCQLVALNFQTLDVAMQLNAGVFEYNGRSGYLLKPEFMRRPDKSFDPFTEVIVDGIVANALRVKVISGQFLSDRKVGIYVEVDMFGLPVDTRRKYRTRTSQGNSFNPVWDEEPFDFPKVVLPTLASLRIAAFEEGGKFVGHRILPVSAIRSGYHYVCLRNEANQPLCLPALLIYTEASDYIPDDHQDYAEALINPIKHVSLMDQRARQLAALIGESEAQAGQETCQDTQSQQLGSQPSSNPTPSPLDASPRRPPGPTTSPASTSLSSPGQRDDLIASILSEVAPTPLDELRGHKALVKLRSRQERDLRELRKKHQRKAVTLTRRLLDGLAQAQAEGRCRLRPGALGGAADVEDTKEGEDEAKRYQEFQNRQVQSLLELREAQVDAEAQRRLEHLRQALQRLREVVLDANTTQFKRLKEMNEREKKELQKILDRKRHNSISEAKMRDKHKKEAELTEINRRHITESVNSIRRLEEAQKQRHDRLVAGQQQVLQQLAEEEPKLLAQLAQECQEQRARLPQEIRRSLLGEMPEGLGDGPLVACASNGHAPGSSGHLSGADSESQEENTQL

[7] = A549 cell cytotoxicity, dose response, cytotoxicity control, plate reader, cherry-pick, antagonist series (AID 743412); type: functional, cell-based
[8] = HepG2 cell cytotoxicity, dose response, cytotoxicity control, plate reader, cherry-pick, antagonist series (AID 743416); type: functional, cell-based
[9] = LGR2 antagonists, dose response, cell-based, HEK293, CRE-luciferase reporter, cherry pick, set 2 (AID 743343); type: functional;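 further: transfected cells were stimulated with diluted bursicon conditioned medium after compound addition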
[10] = HepG2 cell cytotoxicity, dose response, cytotoxicity control, ATP luminescence, cherry-pick, activator set 2 (AID 1053143); type: functional, cell-based
[11] = MC4R antagonists, dose response, counter-screen for LGR2 antagonist project, cell-based, plate reader, cherry pick (AID 743444); type: functional;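 further: transfected HEK 293 cells stimulated with alpha-MSH peptide; potency of inhibitors of the alpha-MSH evoked signal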
[12] = HEK293 cell cytotoxicity, dose response, cytotoxicity control, plate reader, cherry-picked samples (AID 743446); type: functional, cell-based
[13] = Luminescence Cell-Based Dose Response to Identify Activators of 5'UTR Stem-Loop Driven Prion Protein mRNA Translation in H4-C Neuroglioblastoma Cells. [Related pubchem assays: 1829 (Project Summary), 1814 (Primary HTS)]; type: functional
[14] = Luminescence Cell-Based Dose Response HTS to Identify Activators of Luciferase Translation or Activity in H4 […] Cells. [Related pubchem assays: 1829 (Project Summary), 1814 (Primary HTS)]; type: functional
H4 = test: Luminescence Cell-Based Dose Response HTS to Identify Activators of 5'UTR Stem-Loop Driven Prion Protein mRNA Translation in H4 Neuroglioblastoma Cells. [Related pubchem assays: 1829 (Project Summary), 1814 (Primary HTS)]; type: functional; conditions: Homo sapiens
[15] = Luminescence Cell-Based Dose Response to Identify Activators of Luciferase Translation or Activity in H4-C Neuroglioblastoma Cells. [Related pubchem assays: 1829 (Project Summary), 1814 (Primary HTS)]; type: functional
[16] = Luminescence Cell-Based Dose Confirmation to Identify Activators of 5'UTR Stem-Loop Driven Alpha-Synuclein mRNA Translation in H4 Neuroglioblastoma Cells. [Related pubchem assays: 1829 (Project Summary), 1814 (Primary HTS)]; type: functional
Caspase-3 = biological target: T2, Caspase-3 (Homo sapiens, UniProt P42574); type: functional;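 further: Dose-response selectivity test against caspase-3 for candidate inhibitors of sentrin-specific proteases (SENPs)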
T2 sequence (P42574 whole entry): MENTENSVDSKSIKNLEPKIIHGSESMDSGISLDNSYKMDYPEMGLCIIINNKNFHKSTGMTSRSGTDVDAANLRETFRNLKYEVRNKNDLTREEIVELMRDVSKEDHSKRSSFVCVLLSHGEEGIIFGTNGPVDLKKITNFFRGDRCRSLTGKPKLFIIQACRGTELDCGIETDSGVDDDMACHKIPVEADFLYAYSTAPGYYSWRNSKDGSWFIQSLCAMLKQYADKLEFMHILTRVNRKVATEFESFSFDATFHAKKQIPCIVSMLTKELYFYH

[17] = biological target: T3, Sentrin-specific protease 7 (Homo sapiens, UniProt Q9BQF6); type: functional;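 further: Luminescence-based dose-response confirmation of ultra-high-throughput screening hits, measuring inhibition of SENP7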
T3 sequence (Q9BQF6 whole entry): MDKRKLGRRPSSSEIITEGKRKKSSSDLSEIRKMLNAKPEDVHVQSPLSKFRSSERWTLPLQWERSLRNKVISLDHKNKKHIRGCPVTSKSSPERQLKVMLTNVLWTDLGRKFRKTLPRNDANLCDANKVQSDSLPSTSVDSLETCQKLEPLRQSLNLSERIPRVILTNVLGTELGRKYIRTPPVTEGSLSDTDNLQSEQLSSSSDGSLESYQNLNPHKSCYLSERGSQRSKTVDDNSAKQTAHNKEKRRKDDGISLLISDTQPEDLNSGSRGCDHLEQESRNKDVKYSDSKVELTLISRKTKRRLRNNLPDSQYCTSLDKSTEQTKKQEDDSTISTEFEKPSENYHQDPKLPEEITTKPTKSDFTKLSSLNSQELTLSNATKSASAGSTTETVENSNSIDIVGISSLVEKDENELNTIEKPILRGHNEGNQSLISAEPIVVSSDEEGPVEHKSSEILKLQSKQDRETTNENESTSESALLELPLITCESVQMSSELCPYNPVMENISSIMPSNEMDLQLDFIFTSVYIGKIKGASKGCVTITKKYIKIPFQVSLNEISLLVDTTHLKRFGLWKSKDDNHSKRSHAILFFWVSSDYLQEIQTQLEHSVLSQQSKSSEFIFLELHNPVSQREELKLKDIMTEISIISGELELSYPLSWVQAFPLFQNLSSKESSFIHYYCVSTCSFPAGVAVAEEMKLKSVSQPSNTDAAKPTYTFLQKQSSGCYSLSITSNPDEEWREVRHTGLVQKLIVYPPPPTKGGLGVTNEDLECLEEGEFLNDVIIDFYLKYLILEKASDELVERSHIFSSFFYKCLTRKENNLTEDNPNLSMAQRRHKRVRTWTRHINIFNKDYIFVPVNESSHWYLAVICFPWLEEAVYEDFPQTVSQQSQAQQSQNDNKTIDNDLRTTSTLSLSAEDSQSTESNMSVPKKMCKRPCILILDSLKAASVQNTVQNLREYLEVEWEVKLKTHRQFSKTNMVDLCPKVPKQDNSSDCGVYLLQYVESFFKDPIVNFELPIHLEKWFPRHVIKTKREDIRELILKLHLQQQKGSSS

[18] = biological target: T4, Sentrin-specific protease 6 (Homo sapiens, UniProt Q9GZR1); type: functional;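 further: Luminescence-based dose-response confirmatory assay of SENP6 inhibition, following up an ultra-high-throughput screen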
T4 sequence (Q9GZR1 whole entry): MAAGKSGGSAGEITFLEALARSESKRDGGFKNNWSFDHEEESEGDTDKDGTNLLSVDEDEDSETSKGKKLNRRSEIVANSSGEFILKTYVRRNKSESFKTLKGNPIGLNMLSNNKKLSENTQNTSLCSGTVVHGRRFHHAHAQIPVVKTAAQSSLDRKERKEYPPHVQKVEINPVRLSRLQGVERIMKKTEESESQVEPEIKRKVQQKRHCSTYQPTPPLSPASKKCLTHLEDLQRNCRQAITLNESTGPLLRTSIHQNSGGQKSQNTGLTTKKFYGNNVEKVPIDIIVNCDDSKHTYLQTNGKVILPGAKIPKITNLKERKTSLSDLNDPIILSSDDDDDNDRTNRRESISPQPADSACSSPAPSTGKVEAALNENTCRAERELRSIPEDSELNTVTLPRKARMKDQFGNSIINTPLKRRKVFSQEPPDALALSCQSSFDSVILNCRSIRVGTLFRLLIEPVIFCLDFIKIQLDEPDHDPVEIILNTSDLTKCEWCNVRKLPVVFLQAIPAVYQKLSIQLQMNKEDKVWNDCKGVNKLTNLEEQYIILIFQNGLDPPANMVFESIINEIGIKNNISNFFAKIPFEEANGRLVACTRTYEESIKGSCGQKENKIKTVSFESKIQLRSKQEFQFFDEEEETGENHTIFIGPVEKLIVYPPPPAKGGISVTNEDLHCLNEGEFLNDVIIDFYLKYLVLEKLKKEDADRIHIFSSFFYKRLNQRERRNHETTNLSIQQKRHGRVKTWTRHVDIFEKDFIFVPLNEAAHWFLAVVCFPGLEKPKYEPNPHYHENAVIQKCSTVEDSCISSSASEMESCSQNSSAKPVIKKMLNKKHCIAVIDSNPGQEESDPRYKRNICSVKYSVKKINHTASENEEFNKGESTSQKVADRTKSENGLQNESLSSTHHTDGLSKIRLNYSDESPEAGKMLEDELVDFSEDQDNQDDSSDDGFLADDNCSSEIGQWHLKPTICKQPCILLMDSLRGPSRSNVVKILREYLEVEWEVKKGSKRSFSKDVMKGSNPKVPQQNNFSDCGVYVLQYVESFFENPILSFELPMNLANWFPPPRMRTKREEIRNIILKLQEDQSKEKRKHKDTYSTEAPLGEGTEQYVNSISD

[19] = biological target: T5, Sentrin-specific protease 8 (Homo sapiens, UniProt Q96LD8); type: functional;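 further: luminescence read-out of SENP8 inhibition, dose-response confirmation following an ultra-high-throughput screen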
T5 sequence (Q96LD8 whole entry): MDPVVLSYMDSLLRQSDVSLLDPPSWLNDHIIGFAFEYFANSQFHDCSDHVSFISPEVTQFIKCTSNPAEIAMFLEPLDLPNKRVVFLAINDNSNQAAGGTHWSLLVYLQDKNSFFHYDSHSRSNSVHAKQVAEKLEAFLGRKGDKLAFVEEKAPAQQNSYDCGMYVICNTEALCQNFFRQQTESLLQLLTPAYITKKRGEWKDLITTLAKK

[20] = biological target: T6, Oxysterols receptor LXR-beta (Homo sapiens, UniProt P55055); type: functional, cell-based;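 further: agonist activity at LXR measured by a cell-based luminescence readout across a dose range, run as a counterscreen for daf-12 agonists; HEK293 cells with Gal4-LXR fusion and GAL4-driven luciferase reporter; potency for activation of Gal4-LXR reporter so compounds are agonists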
T6 sequence (P55055 whole entry): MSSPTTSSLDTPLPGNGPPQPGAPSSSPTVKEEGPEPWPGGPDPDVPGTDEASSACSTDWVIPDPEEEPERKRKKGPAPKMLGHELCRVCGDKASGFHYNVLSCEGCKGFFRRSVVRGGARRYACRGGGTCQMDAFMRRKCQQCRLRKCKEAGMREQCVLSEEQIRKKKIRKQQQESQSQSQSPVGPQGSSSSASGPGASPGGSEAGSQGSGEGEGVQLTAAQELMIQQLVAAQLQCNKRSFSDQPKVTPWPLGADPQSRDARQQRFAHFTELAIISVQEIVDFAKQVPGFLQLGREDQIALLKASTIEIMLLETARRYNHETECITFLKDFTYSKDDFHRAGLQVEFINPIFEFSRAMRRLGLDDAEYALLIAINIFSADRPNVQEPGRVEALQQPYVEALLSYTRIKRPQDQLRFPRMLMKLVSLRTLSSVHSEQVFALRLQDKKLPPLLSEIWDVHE

With `Fc1ccc(N=C(S)N2CCCN(c3ccc(C(F)(F)F)cn3)CC2)c(F)c1` the AC50 [1] was 3.71 µM (active), the AC50 [2] was 1.09 µM (active) and the AC50 [3] was 27 µM (active). The IC50 (Galanin receptor type 3) was 0.142 µM (active), the EC50 (cells) was > 29.9 µM (inactive) and the IC50 [4] was 3.07 µM (active).
For `COCCNCCCOc1ccc(Br)cc1Cl`, the IC50 [5] was > 123 µM (inactive) and the IC50 [6] was > 123 µM (inactive).
With `c1csc(-c2nc(CN3CCSCC3)cs2)c1` the AC50 [7] was > 52 µM (inactive), the AC50 [8] was > 52 µM (inactive) and the AC50 [9] was 18.8 µM (active). The AC50 [10] was 26 µM (active), the AC50 [11] was 14.8 µM (active) and the AC50 [12] was > 52 µM (inactive).
With `Cc1ccc(S(=O)(=O)NC(=NC(S)=Nc2ccccc2)c2ccccc2)cc1` the EC50 [13] was 0.308 µM (active), the EC50 [14] was < 0.1 µM (inconclusive) and the EC50 (H4) was < 0.1 µM (active). For the same compound, the EC50 [15] was 2.54 µM (active), the EC50 [16] was 0.786 µM (active) and the IC50 (Caspase-3) was 20.4 µM (active). For the same compound, the IC50 [17] was 4.8 µM (active), the IC50 [18] was 14.1 µM (active) and the IC50 [19] was 22.5 µM (active). For the same compound, the EC50 [20] was > 67.5 µM (inactive).
